Source: US20250205259A1, “CLASS OF 7-((FIVE-MEMBERED HETEROCYCLIC)METHYL)-8-CARBOXYLIC ACID-BENZO CYCLIC BORATE DERIVATIVES AND USES THEREOF” (priority 2022, published 2025)
Where two headings read alike, the source gives them in different places.

Columns and labels:
Assay type in all cases: biochemical
NDM-1 = NDM-1 (Klebsiella pneumoniae, UniProt C7C422); test: Inhibitory activity on MBL, fluorescent substrate FC-5
NDM-5 = NDM-5 (Klebsiella pneumoniae, UniProt C7C422, M154L/V88L); test: as above
Chain of NDM-5 (C7C422 29-270 V88L/M154L): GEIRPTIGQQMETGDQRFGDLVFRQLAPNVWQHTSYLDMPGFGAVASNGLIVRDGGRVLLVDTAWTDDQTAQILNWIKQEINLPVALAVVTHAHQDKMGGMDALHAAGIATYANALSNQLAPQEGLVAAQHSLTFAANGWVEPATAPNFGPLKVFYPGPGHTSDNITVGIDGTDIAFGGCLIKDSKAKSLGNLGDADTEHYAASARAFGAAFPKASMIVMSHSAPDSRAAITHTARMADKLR

IMP-1 = IMP-1 (Serratia marcescens, UniProt P52699); test: as above
Chain of IMP-1 (P52699 19-246 limits assumed): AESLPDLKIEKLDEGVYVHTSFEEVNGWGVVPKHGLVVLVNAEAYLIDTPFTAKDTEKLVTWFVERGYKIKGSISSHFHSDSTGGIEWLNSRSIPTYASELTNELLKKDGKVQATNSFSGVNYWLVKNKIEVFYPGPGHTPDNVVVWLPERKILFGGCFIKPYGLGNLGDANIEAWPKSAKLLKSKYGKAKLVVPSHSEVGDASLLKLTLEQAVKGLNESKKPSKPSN

VIM-1 = VIM-1 (Pseudomonas aeruginosa, UniProt A0A0F7KYQ8); test: as above
VIM-2 = VIM-2 (Escherichia coli, UniProt Q5U7L7); test: as above
SHV-12 = target: T1, SHV-12 (UniProt P0AD64, L31Q/G234S/E235K, species not given); test: Inhibitory activity on SBL, fluorescent substrate FC-5; conditions: read-out: Inhibitory activity on SBL SHV-12 (IC50 class)
T1 sequence (P0AD64 1-286 L31Q/G234S/E235K): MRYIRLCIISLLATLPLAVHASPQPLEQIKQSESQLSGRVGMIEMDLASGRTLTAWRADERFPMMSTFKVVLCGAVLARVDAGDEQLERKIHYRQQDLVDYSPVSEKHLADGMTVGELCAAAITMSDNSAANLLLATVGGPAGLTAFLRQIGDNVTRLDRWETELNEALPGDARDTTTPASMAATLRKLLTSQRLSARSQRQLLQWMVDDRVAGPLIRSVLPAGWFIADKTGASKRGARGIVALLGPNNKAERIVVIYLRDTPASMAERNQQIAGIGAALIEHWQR

CTX-M-14 = CTX-M-14 (Escherichia coli, UniProt Q9L5C7); test: as above; conditions: for IC50: read-out: Inhibitory activity on SBL CTX-M-14 (IC50 class); for inhibitory activity on CTX-M-14 compared to avibactam: comparison in words
Chain of CTX-M-14 (Q9L5C7 entry or part of it): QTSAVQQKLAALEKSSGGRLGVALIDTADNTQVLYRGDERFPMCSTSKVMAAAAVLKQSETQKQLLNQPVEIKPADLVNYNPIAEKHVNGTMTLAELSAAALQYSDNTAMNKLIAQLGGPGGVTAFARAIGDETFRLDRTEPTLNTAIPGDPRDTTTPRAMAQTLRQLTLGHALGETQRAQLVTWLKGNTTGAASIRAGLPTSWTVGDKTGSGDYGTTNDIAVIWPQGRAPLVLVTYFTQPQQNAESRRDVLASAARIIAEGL

KPC-2 = KPC-2 (Klebsiella pneumoniae, UniProt Q9F663); test: as above; conditions: for IC50: read-out: Inhibitory activity on SBL KPC-2 (IC50 class); for inhibitory activity on KPC-2 compared to avibactam: comparison in words
Chain of KPC-2 (Q9F663 25-293 limits assumed): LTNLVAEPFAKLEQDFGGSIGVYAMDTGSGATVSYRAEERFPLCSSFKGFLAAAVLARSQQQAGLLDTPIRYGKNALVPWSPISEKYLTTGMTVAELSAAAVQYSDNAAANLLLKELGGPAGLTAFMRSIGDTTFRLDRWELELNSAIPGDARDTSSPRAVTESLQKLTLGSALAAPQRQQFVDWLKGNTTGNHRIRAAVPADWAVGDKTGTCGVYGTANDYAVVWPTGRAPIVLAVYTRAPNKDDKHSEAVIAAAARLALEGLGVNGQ

TEM-1 = TEM-1 (Escherichia coli, UniProt P62593); test: as above; conditions: for IC50: read-out: Inhibitory activity on SBL TEM-1 (IC50 class); for inhibitory activity on TEM-1 compared to avibactam: comparison in words
Chain of TEM-1 (P62593 24-286 limits assumed): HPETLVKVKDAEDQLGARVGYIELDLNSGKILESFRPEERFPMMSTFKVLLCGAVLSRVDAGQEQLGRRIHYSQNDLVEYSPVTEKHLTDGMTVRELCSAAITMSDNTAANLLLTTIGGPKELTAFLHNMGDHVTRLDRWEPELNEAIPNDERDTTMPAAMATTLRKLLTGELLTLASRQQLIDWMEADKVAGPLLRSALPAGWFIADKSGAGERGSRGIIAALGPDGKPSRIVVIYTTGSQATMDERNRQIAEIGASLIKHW

OXA-48 = OXA-48 (Klebsiella pneumoniae, UniProt Q6XEC0); test: as above; conditions: for IC50: read-out: Inhibitory activity on SBL OXA-48 (IC50 class); for inhibitory activity on OXA-48 compared to avibactam: comparison in words
Chain of OXA-48 (Q6XEC0 23-265 limits assumed): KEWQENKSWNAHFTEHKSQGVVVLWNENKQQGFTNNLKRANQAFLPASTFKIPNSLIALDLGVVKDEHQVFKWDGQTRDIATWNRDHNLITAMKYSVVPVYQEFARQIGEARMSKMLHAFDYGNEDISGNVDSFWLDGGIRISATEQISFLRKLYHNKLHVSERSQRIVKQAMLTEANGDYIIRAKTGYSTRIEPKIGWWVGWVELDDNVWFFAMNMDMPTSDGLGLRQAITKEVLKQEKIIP

[1] = read-out: Inhibitory activity on MBL NDM-1 (IC50 class)
[2] = read-out: Inhibitory activity on MBL NDM-5 (IC50 class)
[3] = read-out: Inhibitory activity on MBL IMP-1 (IC50 class)
[4] = read-out: Inhibitory activity on MBL VIM-1 (IC50 class)
[5] = read-out: Inhibitory activity on MBL VIM-2 (IC50 class)
[6] = read-out: inhibitory activity at a nanomolar-level on NDM-1
[7] = read-out: inhibitory activity at a nanomolar-level on NDM-5
[8] = VIM-1 and/or VIM-2, read-out: inhibitory activity at a nanomolar-level on VIM-1 and/or VIM-2
[9] = IMP-1 and/or IMP-4, read-out: inhibitory activity at a nanomolar-level on IMP-1 and/or IMP-4

Chain of NDM-1 (C7C422 29-270 limits assumed): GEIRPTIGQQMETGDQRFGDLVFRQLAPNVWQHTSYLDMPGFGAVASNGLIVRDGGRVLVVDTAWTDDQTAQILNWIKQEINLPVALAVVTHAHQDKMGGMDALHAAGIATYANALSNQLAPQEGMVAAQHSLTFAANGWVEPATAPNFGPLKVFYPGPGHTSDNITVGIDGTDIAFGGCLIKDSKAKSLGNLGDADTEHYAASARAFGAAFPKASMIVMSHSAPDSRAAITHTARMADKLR

Row | SMILES | IC50 (NDM-1; [1]) [nM] | IC50 (NDM-5; [2]) [nM] | IC50 (IMP-1; [3]) [nM] | IC50 (VIM-1; [4]) [nM] | IC50 (VIM-2; [5]) [nM] | IC50 (SHV-12) [nM] | IC50 (CTX-M-14) [nM] | IC50 (NDM-1; [6]) [nM] | IC50 (NDM-5; [7]) [nM] | IC50 (VIM-1; [8]) [nM] | IC50 (KPC-2) [nM] | IC50 (TEM-1) [nM] | IC50 (OXA-48) [nM] | IC50 (IMP-1; [9]) [nM] | inhibitory activity on KPC-2 compared to avibactam (KPC-2) | inhibitory activity on TEM-1 compared to avibactam (TEM-1) | inhibitory activity on CTX-M-14 compared to avibactam (CTX-M-14) | inhibitory activity on OXA-48 compared to avibactam (OXA-48) | IC50 (VIM-2; read-out: inhibitory activity on VIM-2) [nM]
1 | NC(=O)[C@@H]1CC[C@@H]2CN1C(=O)N2OS(=O)(=O)O [Avibactam, reference compound] | > 100000 | > 100000 | > 100000 | > 100000 | > 100000 | < 10 | < 10 |  |  |  |  |  |  |  |  |  |  |  | 
2 | O=C(O)c1c(Cn2nccn2)ccc2c1OB(O)CC2 [Compound 1] | 10 to 1000 | 10 to 1000 | 1000 to 100000 | 1000 to 100000 | 10 to 1000 | 10 to 1000 | 10 to 1000 | < 1000 | < 1000 | < 1000 | < 10 | 10 to 1000 | < 10 |  |  |  |  |  | 
3 | O=C(O)c1c(Cn2ccnn2)ccc2c1OB(O)CC2 [Compound 2] | 10 to 1000 | 10 to 1000 | 1000 to 100000 | 1000 to 100000 | 10 to 1000 | 10 to 1000 | 10 to 1000 | < 1000 | < 1000 | < 1000 | < 10 | 10 to 1000 | 10 to 1000 |  |  |  |  |  | 
4 | C[n+]1ccn(Cc2ccc3c(c2C(=O)O)OB(O)CC3)n1 [Compound 3] | 10 to 1000 | 10 to 1000 | 1000 to 100000 | 1000 to 100000 | 10 to 1000 | 10 to 1000 | 10 to 1000 | < 1000 | < 1000 | < 1000 | < 10 | 10 to 1000 | 10 to 1000 |  |  |  |  |  | 
5 | CCCc1cn(Cc2ccc3c(c2C(=O)O)OB(O)CC3)nn1 [Compound 4] | 10 to 1000 | 10 to 1000 | 10 to 1000 | 1000 to 100000 | 1000 to 100000 | 10 to 1000 | 10 to 1000 | < 1000 | < 1000 |  | < 10 | 10 to 1000 | 10 to 1000 | < 1000 |  |  |  |  | 
6 | O=C(O)c1c(Cn2cc(CN3CCCC3)nn2)ccc2c1OB(O)CC2 [Compound 5] | 1000 to 100000 | 10 to 1000 | 1000 to 100000 | 1000 to 100000 | 10 to 1000 | 10 to 1000 | 10 to 1000 |  |  | < 1000 | < 10 | 10 to 1000 | 10 to 1000 |  |  |  |  |  | 
7 | N#CCCCc1cn(Cc2ccc3c(c2C(=O)O)OB(O)CC3)nn1 [Compound 6] | 1000 to 100000 | 10 to 1000 | 1000 to 100000 | 1000 to 100000 | 10 to 1000 | 10 to 1000 | 10 to 1000 |  |  | < 1000 | < 10 | 10 to 1000 | 10 to 1000 |  |  |  |  |  | 
8 | O=C(O)c1c(Cn2cncn2)ccc2c1OB(O)CC2 [Compound 13] | 10 to 1000 | 10 to 1000 | 1000 to 100000 | 1000 to 100000 | 10 to 1000 | 10 to 1000 | < 10 | < 1000 | < 1000 | < 1000 | < 10 | 10 to 1000 | < 10 |  |  |  |  |  | 
9 | O=C(O)c1c(Cn2cccn2)ccc2c1OB(O)CC2 [Compound 14] | 10 to 1000 | 10 to 1000 | 1000 to 100000 | 1000 to 100000 | 10 to 1000 | 10 to 1000 | < 10 | < 1000 | < 1000 | < 1000 | < 10 | 10 to 1000 | < 10 |  |  |  |  |  | 
10 | O=C(O)c1c(Cn2cc(F)cn2)ccc2c1OB(O)CC2 [Compound 15] | 10 to 1000 | 10 to 1000 | 1000 to 100000 | 1000 to 100000 | 10 to 1000 | 10 to 1000 | 10 to 1000 | < 1000 | < 1000 | < 1000 | < 10 | 10 to 1000 | 10 to 1000 |  |  |  |  |  | 
11 | Nc1ccc(-c2cn(Cc3ccc4c(c3C(=O)O)OB(O)CC4)nn2)cc1 [Compound 59] | 10 to 1000 | 10 to 1000 | 10 to 1000 | 10 to 1000 | 10 to 1000 |  | < 10 | < 1000 | < 1000 | < 1000 | < 10 | < 10 | < 10 | < 1000 | better or comparable | better or comparable | better or comparable | better or comparable | 
12 | Nc1ccc(-c2cn(Cc3ccc4c(c3C(=O)O)OB(O)CC4)nn2)cn1 [Compound 60] | 10 to 1000 | 10 to 1000 | 10 to 1000 | 10 to 1000 | 10 to 1000 |  | 10 to 1000 | < 1000 | < 1000 | < 1000 | < 10 | 10 to 1000 | < 10 | < 1000 | better or comparable | better or comparable | better or comparable | better or comparable | 
13 | Nc1ncc(-c2cn(Cc3ccc4c(c3C(=O)O)OB(O)CC4)nn2)cn1 [Compound 61] | 10 to 1000 | 10 to 1000 | 10 to 1000 | 10 to 1000 | 10 to 1000 |  | 10 to 1000 | < 1000 | < 1000 | < 1000 | < 10 | 10 to 1000 | < 10 | < 1000 | better or comparable | better or comparable | better or comparable | better or comparable | 
14 | NS(=O)(=O)c1ccc(-c2cn(Cc3ccc4c(c3C(=O)O)OB(O)CC4)nn2)cc1 [Compound 62] | 10 to 1000 | 10 to 1000 | 10 to 1000 | 10 to 1000 | 10 to 1000 |  | < 10 | < 1000 | < 1000 | < 1000 | < 10 | 10 to 1000 | < 10 | < 1000 | better or comparable | better or comparable | better or comparable | better or comparable | < 10
15 | NCc1ccc(-c2cn(Cc3ccc4c(c3C(=O)O)OB(O)CC4)nn2)cc1 [Compound 63] | 10 to 1000 | 10 to 1000 | 10 to 1000 | 10 to 1000 | 10 to 1000 |  | 10 to 1000 | < 1000 | < 1000 | < 1000 | < 10 | 10 to 1000 | < 10 | < 1000 | better or comparable | better or comparable | better or comparable | better or comparable | 
16 | NCc1cnn(Cc2ccc3c(c2C(=O)O)OB(O)[C@@H](Sc2nncs2)C3)c1 [Compound 68] | 10 to 1000 | 1000 to 100000 | 1000 to 100000 | 1000 to 100000 | 10 to 1000 |  | 1000 to 100000 |  |  |  | 1000 to 100000 | 1000 to 100000 | 1000 to 100000 |  |  |  |  |  | 
17 | CO[C@H]1Cc2ccc(Cn3cc(CN)cn3)c(C(=O)O)c2OB1O [Compound 69] | 10 to 1000 | 1000 to 100000 | 1000 to 100000 | 1000 to 100000 | 10 to 1000 |  | 1000 to 100000 |  |  |  | 1000 to 100000 | 1000 to 100000 | 1000 to 100000 |  |  |  |  |  | 
18 | NC1CN(Cc2cnn(Cc3ccc4c(c3C(=O)O)OB(O)CC4)c2)C1 [Compound 75] | 1000 to 100000 | > 100000 | > 100000 | 1000 to 100000 | > 100000 |  | 1000 to 100000 |  |  |  | 10 to 1000 | 1000 to 100000 | 1000 to 100000 |  |  |  |  |  | 
